# Key:
# [1] = test system: parietal cells in corpus-stomach mucosoid culture; conditions: BMP4-induced corpus mucosoid culture; 10 μl of 5 mM Histamin solution
# Method: Specific signals are needed to drive the parietal cell lineages and in particular the activation of BMP4 and the suppression MEK/MAPK pathway.
# Three corpus samples were taken at passage 4 in ALI and grown for 13 days in regular medium following by 2 weeks treatment with 50 ng/ml of BMP4 and removal of Noggin and EGF. The Corpus-gEPMs on filters were pre-incubated with […] Acridine Orange for 15 min. The filter was cut out of the insert and mounted with the cells facing the glass on a IBIDI chamber with 400 μl of media (the same with AO). A coverslip was put on top. Images were taken with 25× (Glycerol) for 10 min to stabilize the filter and avoid movements. A solution of 10 μl of 5 mM Histamin in medium was applied on the border of the coverslip while imaging. Fluorescence of acridine orange was excited at 488 nm (3-4%) and images were collected in a time series (10sec) at 500-550 nm and 600-650.
# [2] = test system: IL-8 expression in gastric-antrum mucosoid cultures; test: Pro-inflammatory stimulation of gastric-antrum mucosoid cultures, IL-8 qPCR; type: cell-based, human; conditions: 10 μg/ml TNF-α or 5 μg/ml IL-1β for 3 days; +W+R and −W−R cultures
# Method: Filters were cut out of the insert and directly transferred to a tube containing 1 ml Trizol (Thermo). After vortexing samples were incubated for 10 min at RT, vortexed again and frozen at −80° C. for long-term storage. 500 μl of chloroform was added to thawed samples before vortexing, incubation for 2 min at RT and centrifugation for 15 min at 4° C. The aqueous phase was mixed with isopropanol, inverted 6× and incubated for 10 min at RT. The sample was transferred to a total RNA isolation Kit column (Thermo) and processed according to the manufacturer's instructions. Total RNA was measured using a NanoDrop and reverse transcription carried out using the Tetro cDNA synthesis Kit (Bioline). DNA was extracted using AllPrep DNA/RNA Mini Kit (Qiagen) according to the manufacturer's instructions; Total DNA was measured using a NanoDrop. qPCR (Step One, Applied Biosystem) was performed using the SensiMix™ SYBR® hi-ROX Kit (Bioline, 3-step cycling according to the manufacturer).
# FIG. 16. Antral mucosoid cultures derived from 3 different patients were cultivated for 13 days. Parallel samples were differentiated by excluding Wnt3A and RSPO1 from the culture for 5 days (A)(B) treatment with 10 μg/ml TNF-α or 5 μg/ml IL-1Iβ for 3 days. Expression of IL-8 was analysed by qPCR and normalized to untreated control cells in +W+R medium. ns: not significant; *p<0.005, unpaired t-test. […]
# [3] = test system: ATP4B+ parietal cells in gastric-corpus derived mucosoid cultures; test: BMP4-induced parietal cell differentiation in corpus-stomach mucosoid culture (ATP4B IF); type: cell-based, human; conditions: 50 ng/ml BMP4 for two weeks, absence of Noggin and EGF; untreated 0,4%
molecule,measurement,setting,value
NCCc1c[nH]cn1 [histamine],acid production (acridine orange changes to orange),[1],able to produce acid
IL1-β: recombinant pro-inflammatory cytokine,IL-8 expression (qPCR),[2],induced IL-8 preferentially in +W+R cultures
TNF-α,IL-8 expression (qPCR),[2],induced IL-8 expression regardless of W/R
"BMP4: BMP pathway activator provided at 50 ng/ml to drive parietal cell lineage (protein, UniProt P12644 293-408, looked up) Bone morphogenetic protein 4: SPKHHSQRARKKNKNCRRHSLYVDFSDVGWNDWIVAPPGYQAFYCHGDCPFPLADHLNSTNHAIVQTLVNSVNSSIPKACCVPTELSAISMLYLDEYDKVVLKNYQEMVVEGCGCR",ATP4B+ parietal cells,[3],"2,4%"
